Reference: ChEMBL document CHEMBL1132531, “From histamine to imidazolylalkyl-sulfonamides: the design of a novel series of histamine H3-receptor antagonists” (Bioorg Med Chem Lett, 1999)

What was measured:
[1] = biological target: Histamine H3 receptor (Cavia porcellus) (UniProt Q9JI35); assay: Inhibition of H3-receptor mediated neurogenic contractions in the isolated guinea pig ileum assay; format: functional, tissue-based
[2] = biological target: T1, Histamine H3 receptor (Cavia porcellus, UniProt Q9JI35); assay: Binding affinity towards histamine H3 receptor using [3H](R)-alpha-methylhistamine as radioligand in guinea pig cortical homogenates
T1 sequence (Q9JI35 whole entry): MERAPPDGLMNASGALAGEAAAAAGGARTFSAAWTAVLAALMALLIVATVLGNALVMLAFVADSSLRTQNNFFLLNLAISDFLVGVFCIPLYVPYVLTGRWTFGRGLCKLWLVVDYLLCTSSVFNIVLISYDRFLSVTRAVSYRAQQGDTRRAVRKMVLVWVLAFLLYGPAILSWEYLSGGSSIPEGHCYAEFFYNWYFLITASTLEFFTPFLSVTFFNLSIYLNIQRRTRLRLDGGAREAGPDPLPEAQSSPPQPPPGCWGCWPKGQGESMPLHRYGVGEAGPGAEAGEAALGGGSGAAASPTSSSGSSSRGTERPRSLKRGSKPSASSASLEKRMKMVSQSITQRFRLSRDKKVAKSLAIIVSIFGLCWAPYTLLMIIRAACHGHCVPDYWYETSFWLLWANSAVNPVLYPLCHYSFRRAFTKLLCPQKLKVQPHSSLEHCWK

[3] = biological target: T1, Histamine H3 receptor; assay: Binding affinity towards histamine H3 receptor using [3H](R)-alpha-methylhistamine as radioligand in guinea pig ileum LMMP homogenates; format: tissue-based
[4] = biological target: Histamine H3 receptor (Cavia porcellus) (UniProt Q9JI35); assay: Compound was tested for inhibition of histamine H3-receptor mediated neurogenic contractions in the isolated guinea pig ileum assay; Full agonist; format: functional, tissue-based
[5] = biological target: Histamine H3 receptor (Cavia porcellus) (UniProt Q9JI35); assay: Compound was tested for inhibition of histamine H3-receptor mediated neurogenic contractions in the isolated guinea pig ileum assay; Partial agonist; format: functional, tissue-based

Histamine H3 receptor (Cavia porcellus), sequence (Q9JI35 whole entry): as above

Row | Structure (SMILES) | pKB [1] | Ki [2] [nM] | Ki [3] [nM] | p[A]50 [4] | pKB [5]
1 | O=S(=O)(NCCCCCCc1c[nH]cn1)c1ccc2ccccc2c1 | 7.11 | 25.1 |  |  | 
2 | O=S(=O)(Cc1ccc2ccccc2c1)NCCc1c[nH]cn1 | < 5 | 490 | 1150 |  | 
3 | O=S(=O)(NCCCCCCCCc1c[nH]cn1)c1ccc2ccccc2c1 | 6.62 |  |  |  | 
4 | C[C@@H](N)Cc1c[nH]cn1 |  | 0.0851 | 0.151 | 7.94 | 
5 | O=S(=O)(NCCCCCCCc1c[nH]cn1)c1ccc2ccccc2c1 | 6.88 | 50.1 |  |  | 
6 | C[C@H](Cc1c[nH]cn1)NS(=O)(=O)c1ccc2ccccc2c1 |  | 1.02 |  | 6.02 | 
7 | O=S(=O)(NCCc1c[nH]cn1)c1ccc2ccccc2c1 | 6.7 |  |  |  | 
8 | O=S(=O)(Cc1ccccc1)NCCc1c[nH]cn1 | < 5 |  |  |  | 
9 | O=S(=O)(NCCCCCc1c[nH]cn1)c1ccc2ccccc2c1 | 6.96 | 14.8 |  |  | 
10 | NCCc1c[nH]cn1 [HISTAMINE] |  | 0.145 | 10.5 | 7.15 | 
11 | O=S(=O)(NCCCCc1c[nH]cn1)c1ccc2ccccc2c1 | 6.81 | 22.9 |  |  | 
12 | CS(=O)(=O)NCCc1c[nH]cn1 |  |  | 186 |  | 4.77
13 | O=S(=O)(/C=C/c1ccccc1)NCCc1c[nH]cn1 | < 5.5 | 115 |  |  | 
14 | O=S(=O)(NCCCCCCCCCCc1c[nH]cn1)c1ccc2ccccc2c1 | 5.79 | 138 |  |  | 
15 | O=S(=O)(NCCCc1c[nH]cn1)c1ccc2ccccc2c1 | 5.93 | 14.1 |  |  | 
16 | O=S(=O)(CCC1CCCCC1)NCCc1c[nH]cn1 | 5.87 | 16.2 |  |  | 
